From paper PMC10700596 (Nature Communications, 2023)

Biological target: T1, EP4R (Homo sapiens, UniProt P35408)
T1 construct: Tango fusion cassette (only 'tango' is printed); expressed in transfected cells; host or cells: HTLA cells (tTA-dependent luciferase reporter, β-arrestin2-TEV fusion)
Experiment: biochemical
Format: binding
Conditions: for inhibition at 10 µM: read-out: % displacement of 3HPGE2 at 10 µM, 10 µM compound vs 10 nM 3H-PGE2; for % displacement of 3HPGE2 at 10 µM: 10 µM compound vs 10 nM 3H-PGE2

T1 sequence (P35408 whole entry, the tested form may be a part): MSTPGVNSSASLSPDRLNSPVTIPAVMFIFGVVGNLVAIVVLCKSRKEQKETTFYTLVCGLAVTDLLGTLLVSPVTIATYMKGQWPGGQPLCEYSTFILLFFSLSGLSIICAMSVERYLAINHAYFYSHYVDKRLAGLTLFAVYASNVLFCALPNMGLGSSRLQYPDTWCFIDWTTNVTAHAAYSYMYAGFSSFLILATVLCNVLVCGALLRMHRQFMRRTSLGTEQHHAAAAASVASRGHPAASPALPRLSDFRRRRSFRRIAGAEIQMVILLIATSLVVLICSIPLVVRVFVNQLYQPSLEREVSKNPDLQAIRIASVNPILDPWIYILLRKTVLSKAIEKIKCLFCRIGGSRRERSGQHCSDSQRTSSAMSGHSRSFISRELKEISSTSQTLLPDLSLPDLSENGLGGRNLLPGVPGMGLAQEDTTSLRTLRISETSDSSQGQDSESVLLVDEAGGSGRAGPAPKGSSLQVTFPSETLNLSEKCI

O=C(O)c1ccc(C2CCCN2S(=O)(=O)c2ccccc2-c2ccno2)s1 (stereo not drawn) [Compound 30, OC(=O)C1=CC=C(S1)C2CCCN2S(=O)(=O)C=3C=CC=CC3C4=CC=NO4]
inhibition at 10 µM: -10.1%

O=C(O)[C@H]1C[C@@H](C(=O)N(Cc2ccsc2)c2ccccc2)C1 [Compound 31, OC(=O)[C@H]1C[C@H](C1)C(=O)N(CC=2C=CSC2)C=3C=CC=CC3]
% displacement of 3HPGE2 at 10 µM: -9.4%

O=C(Nc1cccc(-n2nn[nH]c2=O)c1)C1(c2ccccn2)CC1 [Compound 32, O=C(NC=1C=CC=C(C1)N2N=NNC2=O)C3(CC3)C=4C=CC=CN4]
inhibition at 10 µM: -8.5%

O=C(O)[C@H]1C[C@@H](C(=O)N(Cc2ccsc2)c2ccccc2)C1 [Compound 33, OC(=O)[C@H]1C[C@H](C1)C(=O)N(CC=2C=CSC2)C=3C=CC=CC3]
% displacement of 3HPGE2 at 10 µM: -8.1%

CC(NC(=O)C1CC2(CC(C(=O)O)C2)C1)c1ccc(C(F)(F)F)s1 (stereo not drawn) [Compound 34, CC(NC(=O)C1CC2(CC(C2)C(=O)O)C1)C3=CC=C(S3)C(F)(F)F]
inhibition at 10 µM: -6.1%

CC(CN(Cc1ccccc1)C(=O)COc1ccc(Cl)c2cccnc12)C(=O)O (stereo not drawn) [Compound 35, CC(CN(CC=1C=CC=CC1)C(=O)COC=2C=CC(Cl)=C3C=CC=NC23)C(=O)O]
inhibition at 10 µM: -5.8%

CN(C(=O)CSc1nnc(S)s1)c1ccc2ccccc2c1 [Compound 36, CN(C(=O)CSC1=NN=C(S)S1)C=2C=CC=3C=CC=CC3C2]
inhibition at 10 µM: -5.8%

Cc1ccc(CN(Cc2ccco2)C(=O)CSc2nnc(S)s2)s1 [Compound 37, CC1=CC=C(CN(CC2=CC=CO2)C(=O)CSC3=NN=C(S)S3)S1]
inhibition at 10 µM: -5.2%

CC1(C(=O)O)CC(NS(=O)(=O)c2cc3cc(Cl)ccc3s2)CCO1 (stereo not drawn) [Compound 38, CC1(CC(CCO1)NS(=O)(=O)C2=CC=3C=C(Cl)C=CC3S2)C(=O)O]
inhibition at 10 µM: -5.2%

O=C(O)CSc1nc2cc(Cl)ccc2n1Cc1ccccc1 [Compound 39, OC(=O)CSC1=NC=2C=C(Cl)C=CC2N1CC=3C=CC=CC3]
inhibition at 10 µM: -4.9%

CN(C(=O)C1CCCC1Cc1ccccc1)[C@H]1C[C@@H](C(=O)O)C1 (stereo partly drawn) [Compound 40, CN([C@H]1C[C@H](C1)C(=O)O)C(=O)C2CCCC2CC=3C=CC=CC3]
inhibition at 10 µM: -4%

O=C(NCc1ccc(C(F)F)cc1)NC[C@H]1CC[C@H](C(=O)O)CC1 [Compound 41, OC(=O)[C@H]1CC[C@H](CNC(=O)NCC=2C=CC(=CC2)C(F)F)CC1]
inhibition at 10 µM: -3.4%

O=C(O)Cc1ccc(C=C2C(=O)N3CCCc4cccc2c43)cc1 [Compound 42, OC(=O)CC=1C=CC(C=C2C(=O)N3CCCC=4C=CC=C2C34)=CC1]
inhibition at 10 µM: -3.2%

Cc1nn(CC(F)(F)F)c(C)c1CC(=O)N(C1CC1)C(C)C(=O)O (stereo not drawn) [Compound 43, CC(N(C1CC1)C(=O)CC=2C(C)=NN(CC(F)(F)F)C2C)C(=O)O]
inhibition at 10 µM: -2.6%

CN(C(=O)c1cc(N2CCCC2=O)cc(C(F)(F)F)c1)c1nnn[nH]1 [Compound 44, CN(C(=O)C=1C=C(C=C(C1)C(F)(F)F)N2CCCC2=O)C3=NN=NN3]
inhibition at 10 µM: -2.6%

Cc1cccc(C2(C(=O)NC3CCSC4(C3)CC(C(=O)O)C4)CC2)c1 (stereo not drawn) [Compound 45, CC=1C=CC=C(C1)C2(CC2)C(=O)NC3CCSC4(CC(C4)C(=O)O)C3]
inhibition at 10 µM: -1.8%

CN(C(=O)c1nc(C2CC2)n(-c2ccccc2Cl)n1)c1nnn[nH]1 [Compound 46, CN(C(=O)C=1N=C(C2CC2)N(N1)C=3C=CC=CC3Cl)C4=NN=NN4]
inhibition at 10 µM: -1.5%

Cc1cccc2sc(N(C)CC(C)c3nnn[nH]3)nc12 (stereo not drawn) [Compound 47, CC(CN(C)C1=NC=2C(C)=CC=CC2S1)C3=NN=NN3]
inhibition at 10 µM: -1.1%

Cn1nc(-c2ccccc2)cc1CNC(=O)NC1CCC(C(=O)O)CC1 (stereo not drawn) [Compound 48, CN1N=C(C=C1CNC(=O)NC2CCC(CC2)C(=O)O)C=3C=CC=CC3]
inhibition at 10 µM: -0.1%

CC(c1cn(-c2ccccc2)nn1)N1CCN(C(=O)C(=O)O)CC1 (stereo not drawn) [Compound 49, CC(N1CCN(CC1)C(=O)C(=O)O)C2=CN(N=N2)C=3C=CC=CC3]
inhibition at 10 µM: 0.8%

CC(c1nc(-c2cccc(C(F)(F)F)c2)no1)S(=O)(=O)c1nnc[nH]1 (stereo not drawn) [Compound 50, CC(C1=NC(=NO1)C=2C=CC=C(C2)C(F)(F)F)S(=O)(=O)C3=NN=CN3]
inhibition at 10 µM: 0.9%

O=C(O)Cc1ccc(NC(=O)c2cncc(-c3ccccc3)c2)cc1 [Compound 51, OC(=O)CC=1C=CC(NC(=O)C=2C=NC=C(C2)C=3C=CC=CC3)=CC1]
inhibition at 10 µM: 1%

COc1ccccc1CN(Cc1cccs1)C(=O)Cc1cccc(C(=O)O)c1 [Compound 52, COC=1C=CC=CC1CN(CC2=CC=CS2)C(=O)CC=3C=CC=C(C3)C(=O)O]
inhibition at 10 µM: 1.2%

O=C(O)c1cc(NS(=O)(=O)c2ccc(Br)cc2F)ccc1O [Compound 53, OC(=O)C=1C=C(NS(=O)(=O)C=2C=CC(Br)=CC2F)C=CC1O]
inhibition at 10 µM: 2.8%

Cc1cc(C)cc(C2(C(=O)NC(C)c3ncc(C(=O)O)s3)CC2)c1 (stereo not drawn) [Compound 54, CC(NC(=O)C1(CC1)C=2C=C(C)C=C(C)C2)C3=NC=C(S3)C(=O)O]
inhibition at 10 µM: 3.6%

O=C(O)CCC(Cc1ccccc1)NS(=O)(=O)C=Cc1ccccc1Cl (stereo not drawn) [Compound 55, OC(=O)CCC(CC=1C=CC=CC1)NS(=O)(=O)C=CC=2C=CC=CC2Cl]
inhibition at 10 µM: 7.6%

O=C(O)c1ccc(-c2ccc(C=C3CSc4ccc(F)cc4C3=O)o2)cc1O [Compound 56, OC(=O)C=1C=CC(=CC1O)C2=CC=C(C=C3CSC=4C=CC(F)=CC4C3=O)O2]
inhibition at 10 µM: 7.9%

O=C(O)C1CC2(CC(NS(=O)(=O)C=Cc3ccc(F)cc3)CCS2)C1 (stereo not drawn) [Compound 57, OC(=O)C1CC2(C1)CC(CCS2)NS(=O)(=O)C=CC=3C=CC(F)=CC3]
inhibition at 10 µM: 9%

CC(Sc1ccccc1Cl)C(=O)N1CCCC(Cc2nnn[nH]2)C1 (stereo not drawn) [Compound 58, CC(SC=1C=CC=CC1Cl)C(=O)N2CCCC(CC3=NN=NN3)C2]
inhibition at 10 µM: 10.8%

CCSc1cc(C(=O)O)ccc1NC(=O)c1cnn(-c2ccccc2F)c1 [Compound 59, CCSC=1C=C(C=CC1NC(=O)C=2C=NN(C2)C=3C=CC=CC3F)C(=O)O]
inhibition at 10 µM: 11.6%

CC(C)(Oc1ccc(F)cc1)C(=O)N1CC(CC(=O)O)c2ccccc21 (stereo not drawn) [Compound 60, CC(C)(OC=1C=CC(F)=CC1)C(=O)N2CC(CC(=O)O)C=3C=CC=CC23]
inhibition at 10 µM: 13.8%

O=C(O)CCC1CCCN(C(=O)c2nn(-c3ccccc3)c3c2CCC3)C1 (stereo not drawn) [Compound 61, OC(=O)CCC1CCCN(C1)C(=O)C2=NN(C=3CCCC23)C=4C=CC=CC4]
inhibition at 10 µM: 15.1%

CCc1ccc(C(=O)Nc2cccc(-c3nnn[nH]3)c2)c(C)n1 [Compound 63, CCC=1C=CC(C(=O)NC=2C=CC=C(C2)C3=NN=NN3)=C(C)N1]
inhibition at 10 µM: 19.3%

Cc1ccc(-n2nc(C(=O)Nc3ccc(CC(=O)O)cc3)c3c2CCC3)cc1 [Compound 64, CC=1C=CC(=CC1)N2N=C(C(=O)NC=3C=CC(CC(=O)O)=CC3)C=4CCCC42]
inhibition at 10 µM: 20%

Cn1nnnc1NCC(C(=O)OCc1ccccc1)c1ccccc1 (stereo not drawn) [Compound 67, CN1N=NN=C1NCC(C(=O)OCC=2C=CC=CC2)C=3C=CC=CC3]
inhibition at 10 µM: 31.5%

Cc1c(C(=O)N(C)c2nnn[nH]2)cnn1-c1ccc(Cl)cc1 [Compound 69, CN(C(=O)C=1C=NN(C1C)C=2C=CC(Cl)=CC2)C3=NN=NN3]
inhibition at 10 µM: 37.7%
